Assay results: patent US6448058B1, “Methods for solid phase synthesis of mercapto compounds and derivatives, combinatorial libraries thereof and compositions obtained thereby” (Versicor, Inc., priority 1997, dated 2002)
pIC50: −log10 of the molar value.

Target: T1, peptide deformylase (Escherichia coli, UniProt P0A6K3)
T1 construct: made in house
Assay: Peptide deformylase assay (continuous / discontinuous, f-ML-pNA substrate coupled with Aeromonas aminopeptidase)
Format: biochemical
Details: tested as a 1:1 mixture of diastereomers; read-out: IC50 against peptide deformylase
Protocol: The dipeptide substrate, N-formyl-methionylleucyl-p-nitroanilide (f-ML-pNA) is first deformylated by the peptide deformylase to give the corresponding dipeptide with a free amino terminus, which is a substrate for an aminopeptidase from Aeromonas proteolytica (Sigma Chemical Company). Sequential action by the aminopeptidase releases p-nitroaniline, a chromophore which can be detected spectrophotometrically. Peptide deformylase enzyme is prepared as described in Rajagopalan et al., Biochemistry (1997) 36:13910-13918. The dipeptide substrate is prepared as described in Wei and Pei (1997) Anal. Biochem. 250:29-34. Assays are carried out at 23° C. Assays are performed in polystyrene cuvettes which contain 50 mM potassium phosphate, pH 7.0, 100 μM ethylene glycol bis(b-aminoethyl ether)-N,N′-tetraacetic acid (EGTA), 0 to 200 μM peptide substrate, and 0.8 unit Aeromonas aminopeptidase. […] Reactions are monitored continuously at 405 nm in a Perkin-Elmer λ3 UV/VIS spectrophotometer, and the initial rates are calculated from the early part of the reaction progression curves (<60 s). […]
Discontinuous reactions are carried out in a buffer containing 50 mM potassium phosphate, pH 7.0, 100 μM EGTA, and 0 to 200 μM peptide substrate (total volume 250 or 500 μl). […] The amount of p-nitroaniline released is determined by measuring its absorbance at 405 nm. […]

T1 sequence (P0A6K3 whole entry): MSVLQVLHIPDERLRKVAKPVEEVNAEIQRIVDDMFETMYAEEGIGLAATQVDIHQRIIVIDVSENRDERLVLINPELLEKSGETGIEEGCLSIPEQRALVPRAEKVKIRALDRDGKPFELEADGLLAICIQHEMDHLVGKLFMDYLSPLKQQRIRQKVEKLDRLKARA

Structure (SMILES) | pIC50
CCCCC(CS)C(=O)N[C@@H](CC(C)C)C(=O)Nc1ccc([N+](=O)[O-])cc1 (mixture of isomers) [Compound 110] | > 5.00
CCCCC(CS)C(=O)N[C@H](C(=O)N1CCC[C@H]1CO)C(C)C (mixture of isomers) [Compound 111] | > 5.00
